Assay results: US12122761B2, “2-azaspiro[3.4]octane derivatives as M4 agonists” (NOVARTIS AG, priority 2019, dated 2024)

What was measured:
Assay type in all cases: cell-based
[1] = target: T1, human cloned CHRM2 receptor (M2_CHO cells) (Homo sapiens, UniProt P08172); test: CHRM2 Ca++ Flux Assay (agonist mode, FDSS 7000EX); details: for Emax / M2 FDSS PA: Percent Activity measured to EC100 of Carbachol; for Emax: read-out: M2 FDSS PA
T1 construct: expressed in transfected cells; host or cells: CHO-K1
T1 sequence (P08172 1-466): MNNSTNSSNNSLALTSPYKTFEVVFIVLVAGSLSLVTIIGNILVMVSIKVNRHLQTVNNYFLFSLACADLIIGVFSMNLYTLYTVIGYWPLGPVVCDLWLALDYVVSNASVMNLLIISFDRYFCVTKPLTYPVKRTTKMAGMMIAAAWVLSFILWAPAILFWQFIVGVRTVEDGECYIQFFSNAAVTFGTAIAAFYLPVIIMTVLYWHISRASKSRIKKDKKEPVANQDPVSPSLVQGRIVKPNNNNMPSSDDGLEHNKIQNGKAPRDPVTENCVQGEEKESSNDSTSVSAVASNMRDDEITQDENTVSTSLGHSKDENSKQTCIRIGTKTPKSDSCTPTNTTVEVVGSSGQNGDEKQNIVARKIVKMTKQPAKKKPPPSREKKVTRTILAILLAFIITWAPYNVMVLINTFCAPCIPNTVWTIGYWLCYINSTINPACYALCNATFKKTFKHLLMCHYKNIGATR
Method in brief: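 Agonist-mode Ca++ flux in CHO-K1 cells stably expressing human CHRM2, dye-loaded, then held 60 min at room temperature in buffer with 20 μM ATP before compound addition; traces read over 3 minutes. Four-parameter fit of triplicate wells; percent activity relative to Carbachol EC100.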

[2] = target: T2, human cloned CHRM3 receptor (M3_CHO cells) (Homo sapiens, UniProt P20309); test: CHRM3 Ca++ Flux Assay (agonist mode, FDSS 7000EX); details: for Emax / M3 FDSS PA: Percent Activity measured to EC100 of Carbachol; for Emax: read-out: M3 FDSS PA; for EC50: agonist mode, geometric mean if tested more than once, read-out: M3 FDSS EC50
T2 construct: expressed in transfected cells; host or cells: CHO-K1
T2 sequence (P20309 whole entry): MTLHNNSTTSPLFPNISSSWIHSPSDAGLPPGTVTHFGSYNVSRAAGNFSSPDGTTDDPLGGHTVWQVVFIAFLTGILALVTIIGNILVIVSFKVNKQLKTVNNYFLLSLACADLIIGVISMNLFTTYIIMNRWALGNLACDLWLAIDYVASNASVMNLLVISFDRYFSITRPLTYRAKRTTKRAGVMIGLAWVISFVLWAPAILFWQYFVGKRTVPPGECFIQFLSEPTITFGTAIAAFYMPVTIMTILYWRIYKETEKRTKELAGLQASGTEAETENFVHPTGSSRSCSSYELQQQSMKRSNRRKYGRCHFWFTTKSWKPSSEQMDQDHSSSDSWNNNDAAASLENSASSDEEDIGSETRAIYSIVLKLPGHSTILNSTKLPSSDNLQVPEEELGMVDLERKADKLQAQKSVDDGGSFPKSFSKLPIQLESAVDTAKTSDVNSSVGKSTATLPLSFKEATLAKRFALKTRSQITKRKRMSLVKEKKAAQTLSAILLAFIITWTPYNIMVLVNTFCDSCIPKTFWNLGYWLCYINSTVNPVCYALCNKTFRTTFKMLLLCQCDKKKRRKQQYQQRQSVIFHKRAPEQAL
Method in brief: (§1)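 Stable CHO-K1 lines (human M3 or M5), calcium-dye loaded ≥1 h, assayed in Ca/Mg-free HBSS + 20 mM HEPES + 2.5 mM probenecid. 11-pt dose response, triplicate, 3 min fluorescence read. 4-parameter regression; % activity vs carbachol EC100.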

[3] = target: T3, human cloned CHRM5 receptor (M5_CHO) (Homo sapiens, UniProt P08912); test: CHRM5 Ca++ Flux Assay (agonist mode, FDSS 7000EX); details: for Emax / M5 FDSS PA: Percent Activity measured to EC100 of Carbachol; for Emax: read-out: M5 FDSS PA; for EC50: agonist mode, geometric mean if tested more than once, read-out: M5 FDSS EC50
T3 construct: expressed in transfected cells; host or cells: CHO (M5_CHO)
T3 sequence (P08912 1-532): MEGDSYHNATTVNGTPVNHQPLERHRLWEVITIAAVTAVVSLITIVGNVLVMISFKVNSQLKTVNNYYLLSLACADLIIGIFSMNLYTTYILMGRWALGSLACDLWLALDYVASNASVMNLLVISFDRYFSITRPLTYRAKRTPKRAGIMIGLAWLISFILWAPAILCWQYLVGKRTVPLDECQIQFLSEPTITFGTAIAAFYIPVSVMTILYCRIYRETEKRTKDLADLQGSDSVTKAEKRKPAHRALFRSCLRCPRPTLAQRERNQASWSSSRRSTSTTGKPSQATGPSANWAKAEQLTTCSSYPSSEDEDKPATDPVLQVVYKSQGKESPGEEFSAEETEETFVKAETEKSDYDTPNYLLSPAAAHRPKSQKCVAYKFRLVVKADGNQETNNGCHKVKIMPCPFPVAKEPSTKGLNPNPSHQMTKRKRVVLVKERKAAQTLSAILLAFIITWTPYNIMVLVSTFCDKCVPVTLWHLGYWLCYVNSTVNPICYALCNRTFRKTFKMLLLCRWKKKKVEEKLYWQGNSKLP
Method in brief: as §1

Emax [1] [%]	EC50 ([1]; agonist mode, geometric mean if tested more than once, read-out: M2 FDSS EC50) [µM]	Emax [2] [%]	EC50 [2] [µM]	Emax [3] [%]	EC50 [3] [µM]	M2 FDSS PA [1] [%]	M3 FDSS PA [2] [%]	M5 FDSS PA [3] [%]	Structure (SMILES)
15	0.017	0	> 25	0	> 25	–	–	–	c1ccc(C2CCN([C@@H]3CCC4(C3)CN(c3nnco3)C4)CC2)c(OC[C@H]2COCCO2)c1 [Example 1C, 2-((R)-6-(4-(2-(((R)-1,4-dioxan-2-yl)methoxy)phenyl)piperidin-1-yl)-2-azaspiro[3.4]octan-2-yl)-1,3,4-oxadiazole]
–	–	–	> 25	–	> 25	0	0	0	O=C1CCCN1CCOc1ccccc1C1CCN([C@@H]2CCC3(C2)CN(C(=O)C2(F)CC2)C3)CC1.O=CO (single isomer, unassigned) [Example 7P, (R)-1-(2-(2-(1-(2-(1-fluorocyclopropane-1-carbonyl)-2-azaspiro[3.4]octan-6-yl)piperidin-4-yl)phenoxy)ethyl)pyrrolidin-2-one formate salt or (S)-1-(2-(2-(1-(2-(1-fluorocyclopropane-1-carbonyl)-2-azaspiro[3.4]octan-6-yl)piperidin-4-yl)phenoxy)ethyl)pyrrolidin-2-one formate salt]
–	–	–	> 25	–	> 25	0	0	0	O=C(N1CC2(CC[C@@H](N3CCC(c4cc(F)ccc4C4CCOCC4)CC3)C2)C1)C1(F)CC1 (single isomer, unassigned) [Example 9L, (R)-(6-(4-(5-fluoro-2-(tetrahydro-2H-pyran-4-yl)phenyl)piperidin-1-yl)-2-azaspiro[3.4]octan-2-yl)(1-fluorocyclopropyl)methanone or (S)-(6-(4-(5-fluoro-2-(tetrahydro-2H-pyran-4-yl)phenyl)piperidin-1-yl)-2-azaspiro[3.4]octan-2-yl)(1-fluorocyclopropyl)methanone]
0	–	0	> 25	0	> 25	–	–	–	COc1ccccc1C1CCN([C@@H]2CCC3(C2)CN(c2cnc(C)nc2)C3)CC1 [Example 5E, (R)-6-(4-(2-methoxyphenyl)piperidin-1-yl)-2-(2-methylpyrimidin-5-yl)-2-azaspiro[3.4]octane]
0	–	0	> 25	0	> 25	–	–	–	Cc1coc(N2CC3(CC[C@@H](N4CCC(c5ccccc5OCC(C)(C)O)CC4)C3)C2)n1 [Example 3O, (R)-2-methyl-1-(2-(1-(2-(4-methyloxazol-2-yl)-2-azaspiro[3.4]octan-6-yl)piperidin-4-yl)phenoxy)propan-2-ol]
–	–	–	> 25	–	> 25	0	0	0	O=C(N1CC2(CC[C@@H](N3CCC(c4cc(F)ccc4C4(O)CCOCC4)CC3)C2)C1)C1(F)CC1 (single isomer, unassigned) [Example 9J, (R)-(6-(4-(5-fluoro-2-(4-hydroxytetrahydro-2H-pyran-4-yl)phenyl)piperidin-1-yl)-2-azaspiro[3.4]octan-2-yl)(1-fluorocyclopropyl)methanone or (S)-(6-(4-(5-fluoro-2-(4-hydroxytetrahydro-2H-pyran-4-yl)phenyl)piperidin-1-yl)-2-azaspiro[3.4]octan-2-yl)(1-fluorocyclopropyl)methanone]
–	–	–	> 25	–	> 25	0	0	0	O=C(N1CC2(CC[C@@H](N3CCC(c4cc(F)ccc4C4(O)CCOCC4)CC3)C2)C1)C1(F)CC1 (single isomer, unassigned) [Example 9I, (R)-(6-(4-(5-fluoro-2-(4-hydroxytetrahydro-2H-pyran-4-yl)phenyl)piperidin-1-yl)-2-azaspiro[3.4]octan-2-yl)(1-fluorocyclopropyl)methanone or (S)-(6-(4-(5-fluoro-2-(4-hydroxytetrahydro-2H-pyran-4-yl)phenyl)piperidin-1-yl)-2-azaspiro[3.4]octan-2-yl)(1-fluorocyclopropyl)methanone]
0	–	0	> 25	0	> 25	–	–	–	COc1ccccc1C1CCN([C@@H]2CCC3(C2)CN(c2cnccn2)C3)CC1 [Example 5H, (R)-6-(4-(2-methoxyphenyl)piperidin-1-yl)-2-(pyrazin-2-yl)-2-azaspiro[3.4]octane]
–	–	–	> 25	–	> 25	0	−1	0	O=C(N1CC2(CC[C@@H](N3CCC(c4ccccc4OC4CC5(COC5)C4)CC3)C2)C1)C1(F)CC1 (single isomer, unassigned) [Example 11C, (R)-(6-(4-(2-((2-oxaspiro[3.3]heptan-6-yl)oxy)phenyl)piperidin-1-yl)-2-azaspiro[3.4]octan-2-yl)(1-fluorocyclopropyl)methanone or (S)-(6-(4-(2-((2-oxaspiro[3.3]heptan-6-yl)oxy)phenyl)piperidin-1-yl)-2-azaspiro[3.4]octan-2-yl)(1-fluorocyclopropyl)methanone]
–	–	–	> 25	–	> 25	28	0	0	FC(F)(F)Oc1ccccc1C1CCN([C@@H]2CCC3(C2)CN(c2nncs2)C3)CC1 (single isomer, unassigned) [Example 10N, (R)-2-(6-(4-(2-(trifluoromethoxy)phenyl)piperidin-1-yl)-2-azaspiro[3.4]octan-2-yl)-1,3,4-thiadiazole or (S)-2-(6-(4-(2-(trifluoromethoxy)phenyl)piperidin-1-yl)-2-azaspiro[3.4]octan-2-yl)-1,3,4-thiadiazole]
26	–	0	> 25	17	14.3	–	–	–	COc1ccccc1C1CCN([C@@H]2CCC3(C2)CN(c2cncc(F)c2)C3)CC1 [Example 5F, (R)-2-(5-fluoropyridin-3-yl)-6-(4-(2-methoxyphenyl)piperidin-1-yl)-2-azaspiro[3.4]octane]
–	–	–	> 25	–	> 25	0	0	0	O=C(N1CC2(CC[C@@H](N3CCC(c4cc(F)ccc4OC4CC5(COC5)C4)CC3)C2)C1)C1(F)CC1 (single isomer, unassigned) [Example 11A, (R)-(6-(4-(2-((2-oxaspiro[3.3]heptan-6-yl)oxy)-5-fluorophenyl)piperidin-1-yl)-2-azaspiro[3.4]octan-2-yl)(1-fluorocyclopropyl)methanone or (S)-(6-(4-(2-((2-oxaspiro[3.3]heptan-6-yl)oxy)-5-fluorophenyl)piperidin-1-yl)-2-azaspiro[3.4]octan-2-yl)(1-fluorocyclopropyl)methanone]

Structure (SMILES)	Emax [1] [%]	EC50 ([1]; agonist mode, geometric mean if tested more than once, read-out: M2 FDSS EC50) [µM]	Emax [2] [%]	EC50 [2] [µM]	Emax [3] [%]	EC50 [3] [µM]	M2 FDSS PA [1] [%]	M3 FDSS PA [2] [%]	M5 FDSS PA [3] [%]
COC(C)(C)CCOc1ccccc1C1CCN([C@@H]2CCC3(C2)CN(C(=O)C2(F)CC2)C3)CC1 (single isomer, unassigned) [Example 7FF, (R)-(1-fluorocyclopropyl)(6-(4-(2-(3-methoxy-3-methylbutoxy)phenyl)piperidin-1-yl)-2-azaspiro[3.4]octan-2-yl)methanone or (S)-(1-fluorocyclopropyl)(6-(4-(2-(3-methoxy-3-methylbutoxy)phenyl)piperidin-1-yl)-2-azaspiro[3.4]octan-2-yl)methanone]	–	–	–	> 25	–	> 25	0	0	0
